ChEMBL document CHEMBL3045529, “A rational design, synthesis, characterization, and antihypertensive activities of some new substituted benzimidazoles” (2013)

Tested on: Cavia porcellus
Test: Antihypertensive activity in Cavia porcellus (guinea pig) assessed as decrease in systolic blood pressure at 3 mg/kg, iv relative to control
Format: functional, Artery

CCCCc1nc2cc(N(CC)CC)ccc2n1Cc1ccc(-c2ccccc2-c2nnn[nH]2)cc1
Activity: 33 mmHg

CCCCc1nc(Cl)c(CO)n1Cc1ccc(-c2ccccc2-c2nnn[nH]2)cc1 [LOSARTAN]
Activity: 34 mmHg

CCCCc1nc2cc(N(C)C)ccc2n1Cc1ccc(-c2ccccc2-c2nnn[nH]2)cc1
Activity: 29 mmHg

CCCCc1nc2cc(NCC)ccc2n1Cc1ccc(-c2ccccc2-c2nnn[nH]2)cc1
Activity: 29 mmHg

CCCCc1nc2cc(NCCC)ccc2n1Cc1ccc(-c2ccccc2-c2nnn[nH]2)cc1
Activity: 32 mmHg

CCCCC/C=N/c1ccc2c(c1)nc(CCCC)n2Cc1ccc(-c2ccccc2-c2nnn[nH]2)cc1
Activity: 25 mmHg

CCCCc1nc2cc(N)ccc2n1Cc1ccc(-c2ccccc2-c2nnn[nH]2)cc1
Activity: 19 mmHg

CCCCc1nc2cc(NC)ccc2n1Cc1ccc(-c2ccccc2-c2nnn[nH]2)cc1
Activity: 12 mmHg

CCCCc1nc2cc([N+](=O)[O-])ccc2n1Cc1ccc(-c2ccccc2-c2nnn[nH]2)cc1
Activity: 15 mmHg

CCC/C=N/c1ccc2c(c1)nc(CCCC)n2Cc1ccc(-c2ccccc2-c2nnn[nH]2)cc1
Activity: 17 mmHg

CCCC/C=N/c1ccc2c(c1)nc(CCCC)n2Cc1ccc(-c2ccccc2-c2nnn[nH]2)cc1
Activity: 27 mmHg

CCCCc1nc2cc(NC(=O)c3ccccc3)ccc2n1Cc1ccc(-c2ccccc2-c2nnn[nH]2)cc1
Activity: 28 mmHg

CCCCc1nc2cc(NC(C)=O)ccc2n1Cc1ccc(-c2ccccc2-c2nnn[nH]2)cc1
Activity: 22 mmHg

CCCCc1nc2cc(NCc3ccccc3)ccc2n1Cc1ccc(-c2ccccc2-c2nnn[nH]2)cc1
Activity: 31 mmHg

C/C=N/c1ccc2c(c1)nc(CCCC)n2Cc1ccc(-c2ccccc2-c2nnn[nH]2)cc1
Activity: 27 mmHg

CCCCNc1ccc2c(c1)nc(CCCC)n2Cc1ccc(-c2ccccc2-c2nnn[nH]2)cc1
Activity: 31 mmHg

CC/C=N/c1ccc2c(c1)nc(CCCC)n2Cc1ccc(-c2ccccc2-c2nnn[nH]2)cc1
Activity: 18 mmHg
